Data from patent US12410399B2, “Compositions and methods for treating retinal diseases” (The Regents of the University of California, priority 2011, dated 2025).

Key:
hRPC = assay: steroid toxicity test on hRPCs (CCK-8 cytotoxicity); format: cell-based, human
Experimental: The cells were also subjected to a steroid toxicity test, since steroids are often used in patients at the time of transplantation.
Cell Counting Kit-8 (CCK-8; Dojindo Molecular Technologies Inc., Gaithersburg, MD) was used to determine cytotoxicity of RPCs. The kit uses WST-8, which, upon bioreduction in the presence of the electron carrier 1-methoxy PMS, produces a water-soluble colored formazan. Ninety-six well plates containing 90 μl of cell suspension per well were inoculated with 10 μl of CCK-8 pre-packaged solution. The plates were incubator for 2 hours and the OD450 of the supernatant was measured. Each experiment was performed in quadruplicate on at least three separate experiments.

hRPCs = assay: hRPC culture medium and supplement comparison (yield, proliferation); format: cell-based, human; conditions: supplement added to culture medium every two days
Experimental: Various serum- and xeno-free cell culture media were tested to determine the optimum condition for propagating RPCs, including DMEM/FF12 (standard, Advanced and KnockOut; Invitrogen), Neurobasal (Invitrogen), Ultraculture (Lonza), and ReNcell (Chemicon). […] “SM” as provided herein refers to standard growth medium based on DMEM/FF12. “UL” is referred to herein as growth medium using Ultraculture as the base medium. Serum-free media was used in the absence of antibiotics or with antibiotics for first two weeks, followed by antibiotic-free media for about 6 weeks. No antifungal agents were used. […] For base medium, standard DMEM/F12, a media supplemented with N2 Supplement, growth factors, glutamine or GLUTAMAX™ (GlutaMax™), was compared with “Advanced DMEM/FF12”, supplemented in the same way.
The effects of cell culture supplementation were also explored. To that end, the N2 supplement was also compared with the B27 xeno-free supplement. […] The effects of additional vitamin C were also tested. A vitamin C supplement was added to the culture medium every two days. […] Finally, supplementation with albumin was tested.
The osmolarity of the cell culture medium was also examined by using media of differing osmolarity (osm), in combination with different commercially available supplements.

SMILES | effect on cell proliferation (hRPC; clinical doses) | effect on donor cell viability (hRPC; high doses (about >10 times the expected clinical dose)) | improvement of hRPC yield (hRPCs)
CC1(C)O[C@@H]2C[C@H]3[C@@H]4CCC5=CC(=O)C=C[C@]5(C)[C@@]4(F)[C@@H](O)C[C@]3(C)[C@]2(C(=O)CO)O1 [triamcinolone acetonide] | did not appear to affect cell proliferation | may decrease donor cell viability | 
O=C1O[C@H]([C@@H](O)CO)C(O)=C1O [vitamin C] |  |  | approximately 30%
